The record followed here is patent US20110262567A1, “COMPOSITION FOR TREATING GOUT, CONTAINING ANGELICA GIGAS EXTRACT HAVING A XANTHINE OXIDASE-INHIBITING EFFECT AND AN INFLAMMATION-INDUCING ENZYME-INHIBITING EFFECT” (KOREA BIO HEALTH CO., LTD., priority 2008, published 2011).

Converted amounts (≈) assume the structure as drawn.

One assay addresses xanthine oxidase (Homo sapiens, UniProt P47989). Put plainly: Test on xanthine oxidase inhibition. Type of assay: biochemical.
The test system of a further assay is Cox-2. Put plainly: Inflammation inhibition in hepatocytes of gout-induced animal model (Cox-2 western blot of liver). Type of assay: in vivo. The note with it: rat, 50 mg/kg oral for 3 days after potassium oxonate; compared to hyperuricemia control group (model control). The protocol: In order to confirm the inhibitory effect of the Angelica gigas Nakai extract of the present invention on the inflammation-inducing enzyme Cox-2, the uricase inhibitor, potassium oxonate was administered to induce hyperuricemia.
As the experimental animal, 9-week old male sprague-dawley rats (250-280 g, Samtako, Inc.) were acclimated in a SPF chamber where the humidity and temperature were maintained at 50±5% and 24˜26° C. and feed and water were supplied ad libitum for 1 week, and then used for the experiment.
In the present experiment, the uricase inhibitor, potassium oxonate (150 mg/kg) was intraperitoneally administered one day before sample treatment, so as to induce hyperuricemia. The contents of uric acid before and after administration of potassium oxonate were measured and compared to each other, in order to confirm the hyperuricemia induction by administration of potassium oxonate.
Potassium oxonate was suspended in 0.5% sodium carboxymethylcellulose (CMC-Na, 0.5% CMC with 0.1 M sodium acetate (pH5)), and used. […]
After oral administration for 3 days, the experimental animals were fasted overnight, and then anesthetized with dry ice. […] 100 mg was dissected from the whole liver, and proteins were separated using a cell lysis buffer, and the protein concentration was measured by BCA protein assay. […]
On the technique in general: In western blotting, separated proteins are transferred to a membrane and probed.

By IC90 is commonly meant the point of the concentration-response curve where the effect stands at 90%. A lower IC90 goes with an effect from little substance.

xanthine oxidase, sequence (P47989 whole entry, species assumed): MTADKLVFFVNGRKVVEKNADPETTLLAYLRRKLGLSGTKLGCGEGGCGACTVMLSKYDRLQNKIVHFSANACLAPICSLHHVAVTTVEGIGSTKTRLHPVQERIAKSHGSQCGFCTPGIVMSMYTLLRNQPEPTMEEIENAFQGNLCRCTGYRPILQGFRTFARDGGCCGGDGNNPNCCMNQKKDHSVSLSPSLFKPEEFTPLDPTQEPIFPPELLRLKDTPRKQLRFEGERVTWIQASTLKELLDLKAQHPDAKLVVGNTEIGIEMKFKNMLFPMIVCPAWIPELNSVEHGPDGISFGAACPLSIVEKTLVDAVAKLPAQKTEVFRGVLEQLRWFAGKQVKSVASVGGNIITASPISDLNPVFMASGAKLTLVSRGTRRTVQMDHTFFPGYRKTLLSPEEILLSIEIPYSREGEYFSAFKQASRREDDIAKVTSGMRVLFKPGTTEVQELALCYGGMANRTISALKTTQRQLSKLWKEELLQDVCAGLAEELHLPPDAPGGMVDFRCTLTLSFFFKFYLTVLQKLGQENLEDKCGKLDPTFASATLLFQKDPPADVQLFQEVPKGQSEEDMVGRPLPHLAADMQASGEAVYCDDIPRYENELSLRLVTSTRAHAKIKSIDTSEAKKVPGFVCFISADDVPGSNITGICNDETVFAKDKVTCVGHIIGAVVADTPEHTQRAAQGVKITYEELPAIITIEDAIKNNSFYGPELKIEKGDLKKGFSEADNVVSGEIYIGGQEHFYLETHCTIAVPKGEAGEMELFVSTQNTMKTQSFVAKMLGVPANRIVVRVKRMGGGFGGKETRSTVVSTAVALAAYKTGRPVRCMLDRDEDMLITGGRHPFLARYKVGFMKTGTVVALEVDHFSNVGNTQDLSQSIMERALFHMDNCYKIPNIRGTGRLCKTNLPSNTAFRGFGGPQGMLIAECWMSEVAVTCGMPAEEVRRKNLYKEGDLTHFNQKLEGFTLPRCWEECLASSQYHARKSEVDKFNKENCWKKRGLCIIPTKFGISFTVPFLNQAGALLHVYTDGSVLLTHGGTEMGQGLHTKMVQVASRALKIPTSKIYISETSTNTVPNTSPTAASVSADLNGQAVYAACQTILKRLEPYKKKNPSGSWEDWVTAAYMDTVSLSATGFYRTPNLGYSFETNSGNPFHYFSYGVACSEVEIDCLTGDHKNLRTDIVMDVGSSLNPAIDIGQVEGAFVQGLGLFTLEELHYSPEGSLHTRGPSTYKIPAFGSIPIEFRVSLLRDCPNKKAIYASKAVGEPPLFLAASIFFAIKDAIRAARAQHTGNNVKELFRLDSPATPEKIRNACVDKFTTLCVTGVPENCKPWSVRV
Method for xanthine oxidase: In this experiment, xanthine was used as a substrate and xanthine oxidase was used as an enzyme to perform an enzyme-substrate reaction.
250 μl of 50 mM potassium phosphate buffer (pH 7.5), 385 μl of Angelica gigas Nakai extract solution (prepared by dilution with 50 mM potassium phosphate buffer (pH 7.5) until the final concentrations of decursin and decursinol angelate become 1, 5, 10, 17.5, 20, 50 μg/ml), and 330 μl of xanthine solution were mixed with each other to prepare a reaction solution.
35 μl of xanthine oxidase solution (final concentration of 0.4 U/ml) was added to the reaction solution, and reacted in a 37° C. incubator for 15 min. Then, absorbance (Ab) was measured at 295 nm.
Each reaction solution was also prepared using each Angelica gigas Nakai extract (each final concentration of decursin and decursinol angelate was 1, 5, 10, 17.5, 20, or 50 μg/ml) without addition of the xanthine oxidase solution. Further, in the absence of the Angelica gigas Nakai extract, each reaction solution was prepared with or without the xanthine oxidase solution. […]
A: a change in absorbance in the absence of composition (Absorbance with enzyme−Absorbance without enzyme)
B: a change in absorbance in the presence of composition (Absorbance with enzyme−Absorbance without enzyme)

On to `Oc1ncnc2[nH]ncc12` [allopurinol], for which it took 38 µg/mL (≈ 279 µM) to reach the 90% level on xanthine oxidase (IC90). Moreover, the “Cox-2 expression in the hepatic tissue” value with Cox-2 is given as “adversely increased”.
